Experiments:
[1] = test system: LNCaP cells; test: MTT cell viability, LNCaP cells; format: cell-based, human; conditions: even at 100 μM, 24 h
Protocol: (§1) Cell culture—LNCaP androgen-dependent (p53+/+) and PC-3 androgen-nonresponsive (P53−/−) prostate cancer cells were obtained from the American Type Culture Collection (Manassas, Va.). The preparation of the stable Bcl-xL-overexpressing LNCaP clone B3 (LNCaP/B3) was previously described (18). PC-3, LNCaP, and LNCaP/B3 cells were maintained in RPMI 1640 supplemented with 10% fetal bovine serum (FBS) at 37° C. in a humidified incubator containing 5% carbon dioxide. Normal human prostate epithelial (PrEC) cells were purchased from Cambrex Bio Science Walkersville, Inc. (East Tutherford, N.J.). Cells were maintained in Prostate Epithelial Cell Medium with growth supplements at 37° C. in a humidified incubator containing 5% carbon dioxide. The recommended seeding density for subculture is 2,500 cells/cm^2. It takes 6-9 days from subculture to attain confluency.
(§2) Cell viability analysis—The effect of individual test agents on cell viability was assessed by using the MTT assay in 6 to 12 replicates. PC3, LNCaP, and B3-LNCaP cells were seeded and incubated in poly-p-lysine-coated, 96-well, flat-bottomed plates in RPMI 1640 medium supplemented with 10% FBS medium for 24 hours. PrEC cells were seeded at the recommend density in 96-well, flat-bottomed plates in Prostate Epithelial Cell Medium with growth supplements for 3 days. […] Absorbance at 570 nm was determined on a plate reader.
(§3) Determination of IC50 values—Data from cell viability and fluorescence polarization assays were analyzed by using the CalcuSyn software (Biosoft, Ferguson, Mo.) to determine IC50 values, in which the calculation was based on the medium-effect equation [i.e., log(fa/fu)=m log(D)−m log(Dm), where fa and fu denote fraction affected and unaffected, respectively; m represents the Hill-type coefficient signifying the sigmoidicity of the dose-effect curve; and D and Dm are the dose used and IC50, respectively.

[2] = test system: PC-3 cells; test: MTT cell viability, PC-3 cells; format: cell-based, human; conditions: even at 100 μM, 24 h
Protocol: as §1, §2, §3

[3] = target: Bcl-xL (Homo sapiens, UniProt Q07817); test: Competitive fluorescence polarization assay, Bak BH3 peptide binding to Bcl-xL; conditions: for activity in inhibiting Bak peptide-Bcl-xL binding: even at 100 μM
Protocol: Competitive fluorescence polarization assay—The binding affinity of the test agent to Bcl-XL was analyzed by a competitive fluorescence polarization assay in which the ability of the agent to displace the binding of a Bak BH3-domain peptide to either Bcl-2 or Bcl-XL was determined. Flu-BakBH3, a Bak-BH3 peptide labeled at the NH2 terminus with fluorescein, was purchased from Genemed Synthesis (San Francisco, Calif.). COOH-terminal-truncated, His-tagged Bcl-XL was purchased from EMD Biosciences (San Diego, Calif.) and soluble glutathione S-transferase-fused Bcl-2 was obtained from Santa Cruz Biotechnology. The binding analysis was carried out in a dual-path length quartz cell with readings taken at […] at room temperature using a luminescence spectrometer according to an established procedure (19).
as §3

[4] = test system: PrEC cells; test: MTT cell viability, normal prostate epithelial cells (PrECs); format: cell-based, human; conditions: 24 h, Prostate Epithelial Cell Basal Medium with growth supplements
Protocol: as §1
Cell viability analysis—The effect of individual test agents on cell viability was assessed by using the MTT assay in 6 to 12 replicates. PC3, LNCaP, and B3-LNCaP cells were seeded and incubated in poly-p-lysine-coated, 96-well, flat-bottomed plates in RPMI 1640 medium supplemented with 10% FBS medium for 24 hours. PrEC cells were seeded at the recommend density in 96-well, flat-bottomed plates in Prostate Epithelial Cell Medium with growth supplements for 3 days. All cells were exposed to various concentrations of test agents dissolved in ethanol (for α-tocopherol, α-tocopheryl succinate, and TS-3) or DMSO (all other test agents used) with a final concentration of 0.1% in serum-free RPMI 1640 medium for PC3, LNCaP, and LNCaP/B3 cells or in Prostate Epithelial Cell Basal Medium with growth supplements for PrEC cells. Controls received DMSO or ethanol vehicle at a concentration equal to that in drug-treated cells. The medium was removed, replaced by 200 μL of 0.5 mM MTT in 10% FBS-containing RPMI 1640 medium, and cells were incubated in the CO2 incubator at 37° C. for 2 h. […] Absorbance at 570 nm was determined on a plate reader.

Bcl-xL, sequence (Q07817 1-212 limits assumed): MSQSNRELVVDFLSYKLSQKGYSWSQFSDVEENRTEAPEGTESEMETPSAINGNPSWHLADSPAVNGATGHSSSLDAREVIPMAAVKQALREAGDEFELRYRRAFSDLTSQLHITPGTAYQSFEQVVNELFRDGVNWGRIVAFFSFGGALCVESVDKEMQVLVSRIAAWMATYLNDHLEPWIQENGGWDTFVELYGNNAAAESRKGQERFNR

With `Cc1c(C)c2c(c(C)c1OC(=O)CCC(=O)O)CCC(C)(C)O2` [TS-3, succinic acid mono-(2,2,5,7,8-pentamethyl-chroman-6-yl)ester] the “activity in suppressing cell viability” value [1] was “lacked appreciable activity”, the “activity in suppressing cell viability” value [2] was “lacked appreciable activity” and the “Bcl-xL binding affinity (effect of structural change)” value [3] was “abrogated the binding affinity”. The “activity in inhibiting Bak peptide-Bcl-xL binding” value [3] was “lacked appreciable activity”.
`Cc1c(C)c2c(c(C)c1O)CCC(C)(CCCC(C)CCCC(C)C)O2` (centres unmarked) [TS-4, 2-(4,8-dimethyl-nonyl)-2,5,7,8-tetramethyl-chroman-6-ol] was tested, and the “activity in suppressing cell viability” value [1] was “lacked appreciable activity”, the “activity in suppressing cell viability” value [2] was “lacked appreciable activity” and the “activity in inhibiting Bak peptide-Bcl-xL binding” value [3] was “lacked appreciable activity”.
For `Cc1c(C)c2c(c(C)c1OCCC(=O)O)CCC(C)(CCCC(C)CCCC(C)C)O2` (centres unmarked) [TS-5, 3-[2,5,7,8-tetramethyl-2-(4,8-dimethyl-nonyl)-chroman-6-yloxy]propionic acid], the “antiproliferative effect on normal prostate epithelial cells” value [4] was “resistant”.
